Experiments:
KM12 = settings: published NCI60 panel data, ref 1 (Coibamide A), 2 (Apratoxin A), 3 (Ipomoeassin F); cited from earlier work
NCI-H322M = settings: published NCI60 panel data, ref 1 (Coibamide A), 2 (Apratoxin A), 3 (Ipomoeassin F); cited from earlier work
RPMI-8226 = settings: published NCI60 panel data, ref 1 (Coibamide A), 2 (Apratoxin A), 3 (Ipomoeassin F); cited from earlier work
A498 = settings: published NCI60 panel data, ref 1 (Coibamide A), 2 (Apratoxin A), 3 (Ipomoeassin F); cited from earlier work
SR = settings: published NCI60 panel data, ref 1 (Coibamide A), 2 (Apratoxin A), 3 (Ipomoeassin F); cited from earlier work
SK-OV-3 = settings: published NCI60 panel data, ref 1 (Coibamide A), 2 (Apratoxin A), 3 (Ipomoeassin F); cited from earlier work
UO-31 = settings: published NCI60 panel data, ref 1 (Coibamide A), 2 (Apratoxin A), 3 (Ipomoeassin F); cited from earlier work
HCT-15 = settings: published NCI60 panel data, ref 1 (Coibamide A), 2 (Apratoxin A), 3 (Ipomoeassin F); cited from earlier work
SNB-19 = settings: published NCI60 panel data, ref 1 (Coibamide A), 2 (Apratoxin A), 3 (Ipomoeassin F); cited from earlier work
K-562 = settings: published NCI60 panel data, ref 1 (Coibamide A), 2 (Apratoxin A), 3 (Ipomoeassin F); cited from earlier work
EKVX = settings: published NCI60 panel data, ref 1 (Coibamide A), 2 (Apratoxin A), 3 (Ipomoeassin F); cited from earlier work
T-47D = settings: published NCI60 panel data, ref 1 (Coibamide A), 2 (Apratoxin A), 3 (Ipomoeassin F); cited from earlier work
NCI-H522 = settings: published NCI60 panel data, ref 1 (Coibamide A), 2 (Apratoxin A), 3 (Ipomoeassin F); cited from earlier work
CCRF-CEM = settings: published NCI60 panel data, ref 1 (Coibamide A), 2 (Apratoxin A), 3 (Ipomoeassin F); cited from earlier work
HCC-2998 = settings: published NCI60 panel data, ref 1 (Coibamide A), 2 (Apratoxin A), 3 (Ipomoeassin F); cited from earlier work
MALME-3M = settings: published NCI60 panel data, ref 1 (Coibamide A), 2 (Apratoxin A), 3 (Ipomoeassin F); cited from earlier work
COLO 205 = settings: published NCI60 panel data, ref 1 (Coibamide A), 2 (Apratoxin A), 3 (Ipomoeassin F); cited from earlier work
BT-549 = settings: published NCI60 panel data, ref 1 (Coibamide A), 2 (Apratoxin A), 3 (Ipomoeassin F); cited from earlier work
SF-295 = settings: published NCI60 panel data, ref 1 (Coibamide A), 2 (Apratoxin A), 3 (Ipomoeassin F); cited from earlier work
IGROV1 = settings: published NCI60 panel data, ref 1 (Coibamide A), 2 (Apratoxin A), 3 (Ipomoeassin F); cited from earlier work
OVCAR5 = settings: published NCI60 panel data, ref 1 (Coibamide A), 2 (Apratoxin A), 3 (Ipomoeassin F); cited from earlier work
SW-620 = settings: published NCI60 panel data, ref 1 (Coibamide A), 2 (Apratoxin A), 3 (Ipomoeassin F); cited from earlier work
HCT-116 = settings: published NCI60 panel data, ref 1 (Coibamide A), 2 (Apratoxin A), 3 (Ipomoeassin F); cited from earlier work
PC-3 = settings: published NCI60 panel data, ref 1 (Coibamide A), 2 (Apratoxin A), 3 (Ipomoeassin F); cited from earlier work
MDA-MB-231/ATCC = settings: published NCI60 panel data, ref 1 (Coibamide A), 2 (Apratoxin A), 3 (Ipomoeassin F); cited from earlier work
NCI-H226 = settings: published NCI60 panel data, ref 1 (Coibamide A), 2 (Apratoxin A), 3 (Ipomoeassin F); cited from earlier work
UACC-257 = settings: published NCI60 panel data, ref 1 (Coibamide A), 2 (Apratoxin A), 3 (Ipomoeassin F); cited from earlier work
OVCAR4 = settings: published NCI60 panel data, ref 1 (Coibamide A), 2 (Apratoxin A), 3 (Ipomoeassin F); cited from earlier work
A549/ATCC = settings: published NCI60 panel data, ref 1 (Coibamide A), 2 (Apratoxin A), 3 (Ipomoeassin F); cited from earlier work
RXF 393 = settings: published NCI60 panel data, ref 1 (Coibamide A), 2 (Apratoxin A), 3 (Ipomoeassin F); cited from earlier work
HS 578T = settings: published NCI60 panel data, ref 1 (Coibamide A), 2 (Apratoxin A), 3 (Ipomoeassin F); cited from earlier work
SK-MEL-5 = settings: published NCI60 panel data, ref 1 (Coibamide A), 2 (Apratoxin A), 3 (Ipomoeassin F); cited from earlier work
NCI-H460 = settings: published NCI60 panel data, ref 1 (Coibamide A), 2 (Apratoxin A), 3 (Ipomoeassin F); cited from earlier work
TK-10 = settings: published NCI60 panel data, ref 1 (Coibamide A), 2 (Apratoxin A), 3 (Ipomoeassin F); cited from earlier work
NCI/ADR-RES = settings: published NCI60 panel data, ref 1 (Coibamide A), 2 (Apratoxin A), 3 (Ipomoeassin F); cited from earlier work
M14 = settings: published NCI60 panel data, ref 1 (Coibamide A), 2 (Apratoxin A), 3 (Ipomoeassin F); cited from earlier work
HOP-92 = settings: published NCI60 panel data, ref 1 (Coibamide A), 2 (Apratoxin A), 3 (Ipomoeassin F); cited from earlier work
SNB-75 = settings: published NCI60 panel data, ref 1 (Coibamide A), 2 (Apratoxin A), 3 (Ipomoeassin F); cited from earlier work
LOX IMVI = settings: published NCI60 panel data, ref 1 (Coibamide A), 2 (Apratoxin A), 3 (Ipomoeassin F); cited from earlier work
DU-145 = settings: published NCI60 panel data, ref 1 (Coibamide A), 2 (Apratoxin A), 3 (Ipomoeassin F); cited from earlier work
OVCAR3 = settings: published NCI60 panel data, ref 1 (Coibamide A), 2 (Apratoxin A), 3 (Ipomoeassin F); cited from earlier work
SF-539 = settings: published NCI60 panel data, ref 1 (Coibamide A), 2 (Apratoxin A), 3 (Ipomoeassin F); cited from earlier work
MCF7 = settings: published NCI60 panel data, ref 1 (Coibamide A), 2 (Apratoxin A), 3 (Ipomoeassin F); cited from earlier work
HL-60 (TB) = settings: published NCI60 panel data; cited from earlier work
MOLT-4 = settings: published NCI60 panel data, ref 1 (Coibamide A), 2 (Apratoxin A), 3 (Ipomoeassin F); cited from earlier work
MDA-MB-435 = settings: published NCI60 panel data, ref 1 (Coibamide A), 2 (Apratoxin A), 3 (Ipomoeassin F); cited from earlier work
786-0 = settings: published NCI60 panel data, ref 1 (Coibamide A), 2 (Apratoxin A), 3 (Ipomoeassin F); cited from earlier work
NCI-H23 = settings: published NCI60 panel data, ref 1 (Coibamide A), 2 (Apratoxin A), 3 (Ipomoeassin F); cited from earlier work
SK-MEL-2 = settings: published NCI60 panel data, ref 1 (Coibamide A), 2 (Apratoxin A), 3 (Ipomoeassin F); cited from earlier work
U251 = settings: published NCI60 panel data, ref 1 (Coibamide A), 2 (Apratoxin A), 3 (Ipomoeassin F); cited from earlier work
SN12C = settings: published NCI60 panel data, ref 1 (Coibamide A), 2 (Apratoxin A), 3 (Ipomoeassin F); cited from earlier work
HOP-62 = settings: published NCI60 panel data, ref 1 (Coibamide A), 2 (Apratoxin A), 3 (Ipomoeassin F); cited from earlier work
OVCAR8 = settings: published NCI60 panel data, ref 1 (Coibamide A), 2 (Apratoxin A), 3 (Ipomoeassin F); cited from earlier work
SF-268 = settings: published NCI60 panel data, ref 1 (Coibamide A), 2 (Apratoxin A), 3 (Ipomoeassin F); cited from earlier work
UACC-62 = settings: published NCI60 panel data, ref 1 (Coibamide A), 2 (Apratoxin A), 3 (Ipomoeassin F); cited from earlier work
SK-MEL-28 = settings: published NCI60 panel data, ref 1 (Coibamide A), 2 (Apratoxin A), 3 (Ipomoeassin F); cited from earlier work
HT29 = settings: published NCI60 panel data, ref 1 (Coibamide A), 2 (Apratoxin A), 3 (Ipomoeassin F); cited from earlier work
Sec61α = experiment: Photoaffinity labeling competition in sheep rough microsomes; format: binding; settings: SRM with 100 nM Sec61, 30 min with competitor, then 100 nM photo-CbA, UV 10 min, TAMRA in-gel fluorescence
Description: Figure 2 Photo-cross-linking of photo-CbA to Sec61α and CbA stabilization of Sec61 in cells. Photocotransin (CT7) or photocoibamide (pCbA) cross-linking to cells or sheep rough microsomes (SRM). Samples were photolyzed and the covalent adduct detected by click-chemistry to TAMRA-azide reporter and in-gel fluorescence scanning and Western blotting. (A) A431 cell lines were first incubated with CbA or carrier, followed by incubation with photo-CbA, photolysis, and click chemistry. Following SDS PAGE, lysates were queried for in gel fluorescence and subsequently transferred for anti-Sec61α and anti-FLAG Western Blot. Arrows indicate Sec61 (with or without a 10 kDa insert), star indicates nonspecific WB signal, triangle indicates free TAMRA dye within the gel. (B) As in A but in SRMs. […] Heat-treated cell suspensions were snap frozen, lysates cleared by centrifugation, and the soluble fraction analyzed by SDS-PAGE and Western blotting. […] (F) Quantification of immunoblot data shown in E. Sec61α band intensity was normalized to tubulin, and data points were fitted using nonlinear regression analysis.
The photoaffinity labeling and click chemistry with microsomes were done as previously described.[17] […] The labeled proteins were analyzed by SDS-PAGE and in-gel fluorescence. […]

In the case of `C/C=C(\C)C(=O)O[C@@H]1[C@@H](O)[C@@H]2O[C@H]3[C@H](O[C@@H](CCCCC)CCCCCCC(=O)CCC(=O)OC[C@@H](O2)[C@H]1OC(=O)/C=C/c1ccccc1)O[C@H](C)[C@H](OC(C)=O)[C@@H]3O` [IpoF, ipomoeassin F], the GI50 (KM12) is given as 10 nM, the GI50 (NCI-H322M) is given as 391 nM and the GI50 (RPMI-8226) is given as 10 nM. For the same molecule, the GI50 (A498) was 315 nM, the GI50 (SR) was 14.4 nM and the GI50 (SK-OV-3) was 38.4 nM. The GI50 (UO-31) was 10 nM, the GI50 (HCT-15) was 29.8 nM and the GI50 (SNB-19) was 129 nM. For the same molecule, the GI50 (K-562) was 10 nM, the GI50 (EKVX) was 10 nM and the GI50 (T-47D) was 10 nM. The GI50 (NCI-H522) was 27.9 nM, the GI50 (CCRF-CEM) was 741 nM and the GI50 (HCC-2998) was 1180 nM. The GI50 (MALME-3M) was 57.8 nM, the GI50 (COLO 205) was 10 nM and the GI50 (BT-549) was 17.9 nM. For the same molecule, the GI50 (SF-295) was 10 nM, the GI50 (IGROV1) was 26.7 nM and the GI50 (OVCAR5) was 1230 nM. The GI50 (SW-620) was 10 nM, the GI50 (HCT-116) was 10 nM and the GI50 (PC-3) was 10 nM. For the same molecule, the GI50 (MDA-MB-231/ATCC) was 10 nM, the GI50 (NCI-H226) was 276 nM and the GI50 (UACC-257) was 11.9 nM. The GI50 (OVCAR4) was 1580 nM, the GI50 (A549/ATCC) was 10 nM and the GI50 (RXF 393) was 10 nM. For the same molecule, the GI50 (HS 578T) was 10 nM, the GI50 (SK-MEL-5) was 10 nM and the GI50 (NCI-H460) was 10 nM. For the same molecule, the GI50 (TK-10) was 15.2 nM, the GI50 (NCI/ADR-RES) was 297 nM and the GI50 (M14) was 10 nM. For the same molecule, the GI50 (HOP-92) was 10 nM, the GI50 (SNB-75) was 10 nM and the GI50 (LOX IMVI) was 10 nM. For the same molecule, the GI50 (DU-145) was 31.9 nM, the GI50 (OVCAR3) was 28.3 nM and the GI50 (SF-539) was 10 nM. For the same molecule, the GI50 (MCF7) was 10 nM, the GI50 (HL-60 (TB)) was 49 nM and the GI50 (MOLT-4) was 3.42 µM. For the same molecule, the GI50 (MDA-MB-435) was 10 nM, the GI50 (786-0) was 30.1 nM and the GI50 (NCI-H23) was 213 nM. The GI50 (SK-MEL-2) was 445 nM, the GI50 (U251) was 10 nM and the GI50 (SN12C) was 10 nM. For the same molecule, the GI50 (HOP-62) was 10 nM, the GI50 (OVCAR8) was 117 nM and the GI50 (SF-268) was 115 nM. For the same molecule, the GI50 (UACC-62) was 15.3 nM, the GI50 (SK-MEL-28) was 17.5 nM and the GI50 (HT29) was 10 nM.

With `CC(=C\C=C\C(C)=C\[C@H](O)[C@@H](O)C[C@H](C)O)/C=C(C)/C=C/C(=O)O[C@H]1CCCC(=O)O[C@@H]([C@@H](C)C/C(C)=C/[C@@H](C)[C@H](O)C[C@@H](C)O)C/C=C(\C)C[C@@H]1C` [mycolactone] the “competition of photo-CbA cross-linking to Sec61α” value (Sec61α) was “prevented photo-CbA cross-linking in a concentration-dependent manner”.

— paper PMC7497630, “Coibamide A Targets Sec61 to Prevent Biogenesis of Secretory and Membrane Proteins” (ACS Chemical Biology, 2020)
